Reference: patent US10293021B2, “Conjugates and prodrugs for treating cancer and inflammatory diseases” (CENTRE NATIONAL DE LA RECHERCHE SCIENTIFIQUE, priority 2014, dated 2019)
Where a SMILES comes first, the peptide text is derived from it. [ ]: non-standard residue; d: D form. The star is where a group is joined. Dolaproine = CO[C@@H]([C@@H]1CCCN1)[C@@H](C)C(=O)O; Dil = CC[C@H](C)[C@H](NC)[C@@H](CC(=O)O)OC; X1 = C[C@@H](N*)[C@@H](O)c1ccccc1; NMeV = CN[C@H](C(=O)O)C(C)C

What was measured:
[1] = system: orthotopically grafted human breast tumor of MDA-MB-231 type (MDA-MB-231-Luc cells); assay: Therapeutic efficacy in vivo on a murine model of human breast cancer; set-up: species or system Balb/c Nude mice
Experimental: The therapeutic efficacy of the conjugate of formula (III), as synthesized according to the reaction protocol described in example 1, was evaluated on 6-week-old female Balb/c Nude mice (Charles River France Laboratories—L'Arbresle) as indicated in example 3.
The MDA-MB-231 cells originate from a mammary adenocarcinoma from a person. The MDA-MB-231 mammary cancer cell line was supplied by Caliper LifeSciences (Roissy, France). These cells were chosen because they make it possible to generate tumors of hypoxic nature, reflecting the clinical pathological situation.
These cells are modified to express the luciferase gene. The cells were cultured in […] flasks and maintained in a humidified incubator at 37° C. under an atmosphere consisting of air, with Eagle's Minimal Essential Medium (EMEM) supplemented with 10% of fetal calf serum, 1% of L-glutamine, 1% of sodium pyruvate, 1% of non-essential amino acids, 2% of sodium bicarbonate and 1% of penicillin and streptomycin.
For the implantations, the abdomens of the mice were disinfected with an iodinated povidone solution (Betadine®, ASTA Medica, Belgium). The needle was inserted into the subcutaneous space, at the level of the lower left teat. 2×10^6 MDA-MB-231-Luc cells in 100 μl of PBS was slowly injected using a 27-caliber needle. The needle was then slowly withdrawn. For this, the mice will be anesthetized by inhalation of isoflurane (2% in air).
The mice (6 animals per group) received a treatment 15 days after the tumor implantations. The intravenous injections were carried out once a week for 5 weeks with doses of 4 mg/kg of conjugate of formula (III) (D15, D22, D29, D36 and D43). The control groups were treated either with MMAE alone with a dose of 0.3 mg/kg, or with the excipient consisting of a mixture of DMSO and PBS (5%/95%).
The evolution of the tumor volume was monitored by 3D echography. The measurements were carried out as described in example 2, on days 7, 11, 15, 19, 22, 25, 27, 29, 32, 34, 36, 39, 43 and 50.

[2] = system: orthotopically grafted human pancreatic tumor of Mia Paca type (Mia PaCa 2-Luc cells); assay: Therapeutic efficacy in vivo on a murine model of human pancreatic cancer (two weekly injections, D7 and D14); set-up: species or system Swiss Nude mice; details: 2 injections (D7 and D14), echography over 70 days, FIG. 2
Experimental: The therapeutic efficacy of the conjugate of formula (III), as synthesized according to the reaction protocol described in example 1, was evaluated on 6-week-old female Swiss Nude mice (Charles River France Laboratories, l'Arbresle). The animals were acclimatized for 7 days in the laboratory before the experiment. The mice were housed in plastic cages equipped with filtering lids (HEPA filter), in a ventilated cage rack, housed at a temperature of 20±2° C. with a light/dark cycle of 12/12 hours, with free access to water and food ad libitum.
The Mia Paca 2 cells originate from a pancreatic adenocarcinoma from a person. The Mia Paca 2 pancreatic cancer cell line was supplied by the American Type Culture Collection (Rockville, Md.). These cells were chosen since they make it possible to generate tumors of hypoxic nature, reflecting the clinical pathological situation.
These cells were modified to express the luciferase gene (Mia PaCa 2-Luc). The cells were cultured in […] flasks and maintained in a humidified incubator at 37° C. in 5% CO2 with Dulbecco's Modified Eagle Medium (DMEM) supplemented with 10% of fetal calf serum, 2.5% of horse serum, 1% of L-glutamine and 1% of penicillin and streptomycin.
For the implantations, the abdomens of the mice were disinfected with an iodinated povidone solution (Betadine®, ASTA Medica, Belgium). A 1 cm incision was made in the upper left quadrant of the abdomen. The end of the tail of the pancreas was seized and the pancreas and also the spleen were gently externalized in a lateral direction so as to be fully exposed. The needle was inserted into the tail of the pancreas and positioned just in the region of the head of the pancreas. 2×10^6 Mia PaCa 2-Luc cells in 50 μl of PBS were slowly injected using a 27-caliber needle. The spleen was then put back into the appropriate position in the abdomen and the skin and the peritoneum were sutured with a 5.0-diameter resorbable thread. […]
The evolution of the tumor volume was monitored by echography. […]

SMILES: CC[C@H](C)[C@@H]([C@@H](CC(=O)N1CCC[C@H]1[C@H](OC)[C@@H](C)C(=O)N[C@H](C)[C@@H](O)c1ccccc1)OC)N(C)C(=O)[C@@H](NC(=O)[C@@H](NC)C(C)C)C(C)C [MMAE, monomethyl auristatin E, reference compound] (H-[NMeV]V[Dil][Dolaproine]-X1)
- evolution of the tumor volume (antitumor activity versus control animals) ([1]; MMAE alone 0.3 mg/kg (FIG. 4 legend: 0.5 mg/kg) intravenous once a week for 5 weeks, FIG. 4 panel B): only a very modest antitumor activity
- evolution of the tumor volume ([2]; 0.3 mg/kg intravenous): significant increase in the tumor volume is observed starting from day 35

SMILES: CC[C@@H](C)[C@H]([C@H](CC(=O)N1CCC[C@@H]1[C@@H](OC)[C@H](C)C(=O)N[C@@H](C)[C@H](O)c1ccccc1)OC)N(C)C(=O)[C@H](NC(=O)[C@@H](C(C)C)N(C)C(=O)OC(Cc1cn(CCOCCOCCOCCOCCOCCOCCOCCOCCOCCOCCNC(=O)CCCCCN2C(=O)C=CC2=O)nn1)c1ccc(O[C@@H]2OC(C(=O)O)[C@@H](O)[C@H](O)C2O)c([N+](=O)[O-])c1)C(C)C (stereo partly drawn) [conjugate of formula (III)]
- visible side effects ([1]; 4 mg/kg intravenous once a week for 5 weeks): without visible side effects
- evolution of the tumor volume ([1]; 4 mg/kg intravenous once a week for 5 weeks (D15-D43), echography for 50 days, FIG. 4 panel C): total and long-lasting regression of the tumor
- evolution of the tumor volume ([2]; 2 mg/kg intravenous): the progression of the tumor volume is slower than with the control or the non-functionalized MMAE
- evolution of the tumor volume ([2]; 4 mg/kg intravenous): total absence of tumor growth
